Reference: the supplement of paper PMC10307832

Columns and labels:
Test in all cases: relative viability (nuclei count vs DMSO), 5 days (fraction); higher = more cells survive
A-427 = system: A-427
Procedure, shortened: (§1)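 After 5 days of treatment, lung cancer cells in 1536-well plates were fixed and stained in a single step (final 0.05% Triton X-100, 1% formaldehyde, 1 ug/ml Hoechst) and their nuclei counted on 4× images. Treatment had been applied by pin tool the day after seeding as one drug alone or as a fixed anchor-drug dose with five library-drug doses (not always all listed) in √10 steps. Relative viability is the nuclei count of treated wells divided by that of vehicle wells, and values are medians of duplicate plates.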

H3255 = system: H3255
Procedure, shortened: as §1

HARA = system: HARA
Procedure, shortened: as §1

HCC-15 = system: HCC-15
Procedure, shortened: as §1

HCC-366 = system: HCC-366
Procedure, shortened: as §1

LXF-289 = system: LXF-289
Procedure, shortened: as §1

NCI-H1437 = system: NCI-H1437
Procedure, shortened: as §1

NCI-H1755 = system: NCI-H1755
Procedure, shortened: as §1

NCI-H1793 = system: NCI-H1793
Procedure, shortened: as §1

NCI-H1915 = system: NCI-H1915
Procedure, shortened: as §1

NCI-H1975 = system: NCI-H1975
Procedure, shortened: as §1

NCI-H2009 = system: NCI-H2009
Procedure, shortened: as §1

NCI-H2023 = system: NCI-H2023
Procedure, shortened: as §1

NCI-H2405 = system: NCI-H2405
Procedure, shortened: as §1

NCI-H3122 = system: NCI-H3122
Procedure, shortened: as §1

NCI-H441 = system: NCI-H441
Procedure, shortened: as §1

NCI-H460 = system: NCI-H460
Procedure, shortened: as §1

NCI-H596 = system: NCI-H596
Procedure, shortened: as §1

NCI-H650 = system: NCI-H650
Procedure, shortened: as §1

PC-14 = system: PC-14
Procedure, shortened: as §1

PC-3 [JPC-3] = system: PC-3 [JPC-3]
Procedure, shortened: as §1

SK-LU-1 = system: SK-LU-1
Procedure, shortened: as §1

UMC-11 = system: UMC-11
Procedure, shortened: as §1

For O=C(O)CCCCC(CCSCc1ccccc1)SCc1ccccc1 (centres undefined) [CPI-613] + CS(=O)(=O)N1CCN(Cc2cc3nc(-c4cccc5[nH]ncc45)nc(N4CCOCC4)c3s2)CC1 [Pictilisib] (partner 1 µM), the relative viability (A-427; first compound 5 µM) was 0.742, the relative viability (A-427; first compound 15.81 µM) was 0.696 and the relative viability (A-427; first compound 50 µM) was 0.66. The relative viability (A-427; first compound 158.11 µM) was 0.613, the relative viability (A-427; first compound 500 µM) was 0.737 and the relative viability (H3255; first compound 5 µM) was 0.512. For the same molecule, the relative viability (H3255; first compound 15.81 µM) was 0.462, the relative viability (H3255; first compound 50 µM) was 0.452 and the relative viability (H3255; first compound 158.11 µM) was 0.472. For the same molecule, the relative viability (H3255; first compound 500 µM) was 0.43, the relative viability (HARA; first compound 5 µM) was 0.474 and the relative viability (HARA; first compound 15.81 µM) was 0.409. It also gave a relative viability (HARA; first compound 50 µM) of 0.281, a relative viability (HARA; first compound 158.11 µM) of 0.242 and a relative viability (HARA; first compound 500 µM) of 0.084. For the same molecule, the relative viability (HCC-15; first compound 5 µM) was 0.604, the relative viability (HCC-15; first compound 15.81 µM) was 0.664 and the relative viability (HCC-15; first compound 50 µM) was 0.603. The relative viability (HCC-15; first compound 158.11 µM) was 0.629, the relative viability (HCC-15; first compound 500 µM) was 0.238 and the relative viability (HCC-366; first compound 5 µM) was 0.149. The relative viability (HCC-366; first compound 15.81 µM) was 0.144, the relative viability (HCC-366; first compound 50 µM) was 0.154 and the relative viability (HCC-366; first compound 158.11 µM) was 0.12. The relative viability (HCC-366; first compound 500 µM) was 0.157, the relative viability (LXF-289; first compound 5 µM) was 0.716 and the relative viability (LXF-289; first compound 15.81 µM) was 0.752. It also gave a relative viability (LXF-289; first compound 50 µM) of 0.728, a relative viability (LXF-289; first compound 158.11 µM) of 0.479 and a relative viability (LXF-289; first compound 500 µM) of 0.0147. For the same molecule, the relative viability (NCI-H1437; first compound 5 µM) was 0.433, the relative viability (NCI-H1437; first compound 15.81 µM) was 0.286 and the relative viability (NCI-H1437; first compound 50 µM) was 0.435. The relative viability (NCI-H1437; first compound 158.11 µM) was 0.181, the relative viability (NCI-H1437; first compound 500 µM) was 0.0176 and the relative viability (NCI-H1755; first compound 5 µM) was 0.39. It also gave a relative viability (NCI-H1755; first compound 15.81 µM) of 0.4, a relative viability (NCI-H1755; first compound 50 µM) of 0.415 and a relative viability (NCI-H1755; first compound 158.11 µM) of 0.359. For the same molecule, the relative viability (NCI-H1755; first compound 500 µM) was 0.116, the relative viability (NCI-H1793; first compound 5 µM) was 0.248 and the relative viability (NCI-H1793; first compound 50 µM) was 0.266. It also gave a relative viability (NCI-H1793; first compound 158.11 µM) of 0.205, a relative viability (NCI-H1793; first compound 500 µM) of 0.0326 and a relative viability (NCI-H1915; first compound 5 µM) of 0.988. For the same molecule, the relative viability (NCI-H1915; first compound 15.81 µM) was 0.719, the relative viability (NCI-H1915; first compound 50 µM) was 0.908 and the relative viability (NCI-H1915; first compound 158.11 µM) was 0.927. For the same molecule, the relative viability (NCI-H1915; first compound 500 µM) was 0.503, the relative viability (NCI-H1975; first compound 5 µM) was 0.292 and the relative viability (NCI-H1975; first compound 15.81 µM) was 0.225. It also gave a relative viability (NCI-H1975; first compound 50 µM) of 0.314, a relative viability (NCI-H1975; first compound 158.11 µM) of 0.258 and a relative viability (NCI-H1975; first compound 500 µM) of 0.0574. The relative viability (NCI-H2009; first compound 5 µM) was 0.855, the relative viability (NCI-H2009; first compound 15.81 µM) was 0.675 and the relative viability (NCI-H2009; first compound 50 µM) was 0.722. It also gave a relative viability (NCI-H2009; first compound 158.11 µM) of 0.0928, a relative viability (NCI-H2009; first compound 500 µM) of 0.0311 and a relative viability (NCI-H2023; first compound 5 µM) of 0.233. For the same molecule, the relative viability (NCI-H2023; first compound 15.81 µM) was 0.218, the relative viability (NCI-H2023; first compound 50 µM) was 0.231 and the relative viability (NCI-H2023; first compound 158.11 µM) was 0.0548. The relative viability (NCI-H2023; first compound 500 µM) was 0.0183, the relative viability (NCI-H2405; first compound 5 µM) was 0.493 and the relative viability (NCI-H2405; first compound 15.81 µM) was 0.331. The relative viability (NCI-H2405; first compound 50 µM) was 0.425, the relative viability (NCI-H2405; first compound 158.11 µM) was 0.388 and the relative viability (NCI-H2405; first compound 500 µM) was 0.421. The relative viability (NCI-H3122; first compound 5 µM) was 0.587, the relative viability (NCI-H3122; first compound 15.81 µM) was 0.614 and the relative viability (NCI-H3122; first compound 50 µM) was 0.591. The relative viability (NCI-H3122; first compound 158.11 µM) was 0.605, the relative viability (NCI-H3122; first compound 500 µM) was 0.031 and the relative viability (NCI-H441; first compound 5 µM) was 0.498. The relative viability (NCI-H441; first compound 15.81 µM) was 0.468, the relative viability (NCI-H441; first compound 50 µM) was 0.417 and the relative viability (NCI-H441; first compound 158.11 µM) was 0.147. The relative viability (NCI-H441; first compound 500 µM) was 0.0254, the relative viability (NCI-H460; first compound 5 µM) was 0.353 and the relative viability (NCI-H460; first compound 15.81 µM) was 0.315. It also gave a relative viability (NCI-H460; first compound 50 µM) of 0.347, a relative viability (NCI-H460; first compound 158.11 µM) of 0.419 and a relative viability (NCI-H460; first compound 500 µM) of 0.342. The relative viability (NCI-H596; first compound 5 µM) was 0.423, the relative viability (NCI-H596; first compound 15.81 µM) was 0.442 and the relative viability (NCI-H596; first compound 50 µM) was 0.435. It also gave a relative viability (NCI-H596; first compound 158.11 µM) of 0.339, a relative viability (NCI-H596; first compound 500 µM) of 0.0372 and a relative viability (NCI-H650; first compound 5 µM) of 0.805. It also gave a relative viability (NCI-H650; first compound 15.81 µM) of 0.861, a relative viability (NCI-H650; first compound 50 µM) of 0.855 and a relative viability (NCI-H650; first compound 158.11 µM) of 0.742. The relative viability (NCI-H650; first compound 500 µM) was 0.736, the relative viability (PC-14; first compound 5 µM) was 0.747 and the relative viability (PC-14; first compound 15.81 µM) was 0.677. It also gave a relative viability (PC-14; first compound 50 µM) of 0.637, a relative viability (PC-14; first compound 158.11 µM) of 0.725 and a relative viability (PC-14; first compound 500 µM) of 0.526. The relative viability (PC-3 [JPC-3]; first compound 5 µM) was 0.683, the relative viability (PC-3 [JPC-3]; first compound 15.81 µM) was 0.617 and the relative viability (PC-3 [JPC-3]; first compound 50 µM) was 0.656. For the same molecule, the relative viability (PC-3 [JPC-3]; first compound 158.11 µM) was 0.636, the relative viability (PC-3 [JPC-3]; first compound 500 µM) was 0.404 and the relative viability (SK-LU-1; first compound 5 µM) was 0.533. For the same molecule, the relative viability (SK-LU-1; first compound 15.81 µM) was 0.428, the relative viability (SK-LU-1; first compound 50 µM) was 0.49 and the relative viability (SK-LU-1; first compound 158.11 µM) was 0.46. The relative viability (SK-LU-1; first compound 500 µM) was 0.264, the relative viability (UMC-11; first compound 5 µM) was 0.804 and the relative viability (UMC-11; first compound 15.81 µM) was 0.698. The relative viability (UMC-11; first compound 50 µM) was 0.496, the relative viability (UMC-11; first compound 158.11 µM) was 0.642 and the relative viability (UMC-11; first compound 500 µM) was 0.104.
